Data set [1] concerns the target T1, GABAA/α1 (α1β3γ2 GABAA receptors) (Homo sapiens, UniProt P14867+P18507).
T1 construct: expressed in transfected cells
Nature of the data set: Competitive binding assay, [3H]flunitrazepam. To be noted: Binding Affinity at GABAA/α1, αxβ3γ2, [3H]flunitrazepam competition. As for the experimental part:
(§1) The GABAA subunit selectivity of several compounds prepared as described above were determined using competitive binding assays. […] Membranes were harvested with a Brandel cell harvester followed by three ice-cold washes onto polyethyleneimine-pretreated (0.3%) Whatman GF/C filters. Filters were dried overnight and then soaked in Ecoscint, a liquid scintillation cocktail (National Diagnostics; Atlanta, Ga.). Bound radioactivity was quantified by liquid scintillation counting. Membrane protein concentrations were determined using an assay kit from Bio-Rad (Hercules, Calif.) with bovine serum albumin as the standard.

The target in data set [2] is T2, GABAA/α2 (α2β3γ2 GABAA receptors) (Homo sapiens, UniProt P18507+P47869).
T2 construct: expressed in transfected cells
The data set can be described thus: Competitive binding assay, [3H]flunitrazepam. To be noted: Binding Affinity at GABAA/α2, αxβ3γ2, [3H]flunitrazepam competition. As for the experimental part: as §1

Data set [3] addresses T3, GABAA/α6 (α6β3γ2 GABAA receptors) (Homo sapiens, UniProt P18507+Q16445).
T3 construct: expressed in transfected cells
The data set can be described thus: Competitive binding assay, [3H]flunitrazepam. How it is done: as §1

Data set [4] has as its target T4, GABAA/α4 (α4β3γ2 GABAA receptors) (Homo sapiens, UniProt P18507+P48169).
T4 construct: expressed in transfected cells
The data set can be described thus: Competitive binding assay, [3H]flunitrazepam. How it is done: as §1

In data set [5] the target is T5, GABAA/α3 (α3β3γ2 GABAA receptors) (Homo sapiens, UniProt P18507+P34903).
T5 construct: expressed in transfected cells
Nature of the data set: Competitive binding assay, [3H]flunitrazepam. To be noted: Binding Affinity at GABAA/α3, αxβ3γ2, [3H]flunitrazepam competition. How it is done: as §1

Data set [6] has as its target T6, GABAA/α5 (α5β3γ2 GABAA receptors) (Homo sapiens, UniProt P18507+P31644).
T6 construct: expressed in transfected cells
The data set can be described thus: Competitive binding assay, [3H]flunitrazepam. To be noted: Binding Affinity at GABAA/α5, αxβ3γ2, [3H]flunitrazepam competition. As for the experimental part: as §1

In another data set the test system is 6 Hz psychomotor seizure. Nature of the data set: Minimal clonic seizure (6 Hz) test. To be noted: Mice IP; for ED50: Mus musculus, ip. It counts as in vivo. An excerpt: Like the maximal electroshock (MES) test, the minimal clonic seizure (6 Hz) test is used to assess a compound's efficacy against electrically-induced seizures but uses a lower frequency (6 Hz) and longer duration of stimulation (3 s). Test compounds are pre-administered to mice via ip injection. […] Untreated mice will display seizures characterized by a minimal clonic phase followed by stereotyped, automatistic behaviors described originally as being similar to the aura of human subjects with partial seizures. Animals not displaying this behavior are considered protected (Table 10).

Data set [7] can be described thus: Toxicity (TOX), rotorod procedure, mice. It counts as in vivo. To be noted: mouse, in vivo; IP route in mice (footnote of Table 10); read-out: TD50. As for the experimental part: (§2) The benzodiazepine derivative compounds selective for GABAa receptor subunits were tested for the ability to suppress seizures in several standard rat and mouse models of epilepsy. […] The standard models incorporated into anticonvulsant screening include the maximal electroshock test (MES), the subcutaneous Metrazol test (scMet), and evaluations of toxicity (TOX). The data for each condition is presented as a ratio of either the number of animals protected or toxic (loss of locomotor activity) over the number of animals tested at a given time point and dose.
(§3) To assess a compound's undesirable side effects (toxicity), animals are monitored for overt signs of impaired neurological or muscular function. […] When a mouse is placed on a rod that rotates at a speed of 6 rpm, the animal can maintain its equilibrium for long periods of time. The animal is considered toxic if it falls off this rotating rod three times during a 1-min period. In rats, minimal motor deficit is indicated by ataxia, which is manifested by an abnormal, uncoordinated gait. Rats used for evaluating toxicity are examined before the test drug is administered, since individual animals may have peculiarities in gait, equilibrium, placing response, etc., which might be attributed erroneously to the test substance.
On the technique in general: In the rotarod test animals must keep their balance on a rotating rod.

Data set [8] has as its system MES-induced seizures. To be noted: Mice IP; from Antiepileptic Drugs, 5th ed., Levy et al., 2002; cited from earlier work.
The subject of data set [9] is Metrazol-induced clonic seizures. To be noted: Mice IP; from Antiepileptic Drugs, 5th ed., Levy et al., 2002; cited from earlier work.
For data set [10], the system named is MES-induced seizures. To be noted: Rat PO; from Antiepileptic Drugs, 5th ed., Levy et al., 2002; cited from earlier work.
Data set [11] has as its system Metrazol-induced clonic seizures. To be noted: Rat PO; from Antiepileptic Drugs, 5th ed., Levy et al., 2002; cited from earlier work.
The subject of data set [12] is minimal muscular or neurological impairment. Nature of the data set: Toxicity (TOX), rotorod procedure, mice. The data set is classed as in vivo. To be noted: Mice IP. How it is done:
as §2, §3

In data set [13] the test system is Metrazol-induced clonic seizures. The data set can be described thus: Subcutaneous Metrazol test (scMet), rats. To be noted: Rat PO, 50 mg/kg. It counts as in vivo. How it is done: as §2
(§4) Subcutaneous injection of the convulsant Metrazol produces clonic seizures in laboratory animals. […] Animals are pretreated with various doses of the test compound (in a similar manner to the MES test, although a dose of 50 mg/kg (po) is the standard for Test 2 scMet). At the previously determined TPE of the test compound, the dose of Metrazol which will induce convulsions in 97% of animals (CD97: 85 mg/kg mice) is injected into a loose fold of skin in the midline of the neck. […] An episode of clonic spasms, approximately 3-5 seconds, of the fore and/or hindlimbs, jaws, or vibrissae is taken as the endpoint.

Data set [14] deals with MES-induced seizures. Nature of the data set: Maximal electroshock test (MES), mice. To be noted: Mice IP. The data set is classed as in vivo. How it is done:
as §2
The MES is a model for generalized tonic-clonic seizures and provides an indication of a compound's ability to prevent seizure spread when all neuronal circuits in the brain are maximally active. These seizures are highly reproducible and are electrophysiologically consistent with human seizures. For all tests based on MES convulsions, 60 Hz of alternating current (50 mA in mice, 150 in rats) is delivered for by corneal electrodes which have been primed with an electrolyte solution containing an anesthetic agent (0.5% tetracaine HCL). For Test 1, mice are tested at various intervals following doses of 30, 100 and 300 mg/kg of test compound given by ip injection of a volume of 0.01 mL/g. In Test 2, rats are tested after a dose of 30 mg/kg (po) in a volume of 0.04 mL/g. Test 8 uses varying doses administered via i.p. injection, again in a volume of 0.04 ml/g. […] In Antiepileptic Drugs, Levy, R. H. M., Meldrum, B. S., Eds.; Raven Press: New York, pp 99-110, 1995b.).

Data set [15] relates to minimal motor deficit (ataxia, abnormal gait). Nature of the data set: Toxicity (TOX), minimal motor deficit, rats. The data set is classed as in vivo. To be noted: Rat PO, 50 mg/kg. How it is done: as §2, §3
Data set [16] concerns Metrazol-induced clonic seizures. Nature of the data set: Subcutaneous Metrazol test (scMet), mice. To be noted: Mice IP. It counts as in vivo. How it is done:
as §2, §4

Read-outs that look alike come from different tables or passages of the source.

Results on four compounds are retold here after patent US20100261711A1, “SELECTIVE ANTICONVULSANT AGENTS AND THEIR USES” (WiSys Technology Foundation, priority 2009, published 2010).

Turning to `C#Cc1ccc2c(c1)C(c1ccccc1)=NC(C)c1c(C(=O)OCC)ncn1-2` (single isomer, unassigned) [SH-053-S-CH3, 8-Ethynyl-4-methyl-6-phenyl-4H-2,5,10b-triaza-benzo[e]azulene-3-carboxylic acid ethyl ester], the Ki in data set [1] is 1.67 µM; in data set [2], 1.26 µM; in data set [3] it was more than 5 µM; in [4] it was more than 5 µM; in data set [5] it was 1.25 µM; in [6] it was 0.206 µM.

For the compound `NC(=O)N1c2ccccc2C=Cc2ccccc21` [Carbamazepine], the median effective dose (ED50) with 6 Hz psychomotor seizure (32 mA, read-out: ED50 32 mA (6 Hz test)) is more than 40 mg/kg. In addition, the TD50 in [7] worked out at 41 mg/kg. Moreover, the “ED50 MES” value with MES-induced seizures [8] is 7.81 mg/kg; in the data set with MES-induced seizures [10], 5.35 mg/kg. The “ED50 scMet” value in data set [9] is given as more than 50 mg/kg; in data set [11] it was more than 250 mg/kg.

As for `C#Cc1ccc2c(c1)C(c1ccccc1)=NC(C)c1c(C(=O)OCC)ncn1-2` (single isomer, unassigned) [SH-053-R-CH3, 8-Ethynyl-4-methyl-6-phenyl-4H-2,5,10b-triaza-benzo[e]azulene-3-carboxylic acid ethyl ester], the Ki in [1] was 2.03 µM; in data set [2], 2.38 µM; in data set [3] (read-out: Binding Affinity at GABAA/α6, αxβ3γ2, [3H]flunitrazepam competition), more than 5 µM; in data set [4] (read-out: Binding Affinity at GABAA/α4, αxβ3γ2, [3H]flunitrazepam competition), more than 5 µM; in [5] it was 1.18 µM; in [6] it was 0.949 µM.

Take `C#Cc1ccc2c(c1)C(c1ccccc1F)=NC(C)c1c(C(=O)OCC)ncn1-2` (single isomer, unassigned) [SH-053-2′F-S-CH3, 8-Ethynyl-6-(2-fluorophenyl)-4-methyl-4H-2,5,10b-triazabenzo[e]azulene-3-carboxylic acid ethyl ester]: the “6 Hz Time to Peak Effect, protected/tested” value (“6 Hz Time … protected/tested” for short) is listed as 6/8 with 6 Hz psychomotor seizure (30 mg/kg, 22 mA, 1.0 Hr); 2/8 with 6 Hz psychomotor seizure (30 mg/kg, 22 mA, 2.0 Hr); 1/4 in the data set on 6 Hz psychomotor seizure (50 mg/kg, 22 mA, 0.5 Hr); 3/4 in the data set with 6 Hz psychomotor seizure (50 mg/kg, 22 mA, 1.0 Hr); 3/4 in the data set with 6 Hz psychomotor seizure (50 mg/kg, 22 mA, 2.0 Hr); 2/4 in the data set with 6 Hz psychomotor seizure (100 mg/kg, 22 mA, 0.25 Hr). Also, the “6 Hz Time … protected/tested” value in the data set with 6 Hz psychomotor seizure (100 mg/kg, 22 mA, 0.5 Hr) is listed as 4/4; in the data set on 6 Hz psychomotor seizure (100 mg/kg, 22 mA, 1.0 Hr), 4/4; in the data set with 6 Hz psychomotor seizure (100 mg/kg, 22 mA, 2.0 Hr), 4/4; with 6 Hz psychomotor seizure (100 mg/kg, 22 mA, 4.0 Hr), 2/4; with 6 Hz psychomotor seizure (100 mg/kg, 32 mA, 0.25 Hr), 2/4; in the data set with 6 Hz psychomotor seizure (100 mg/kg, 32 mA, 0.5 Hr) it was 1/4. For the same compound, the “6 Hz Time … protected/tested” value in the data set on 6 Hz psychomotor seizure (100 mg/kg, 32 mA, 1.0 Hr) is reported as 4/4; in the data set with 6 Hz psychomotor seizure (100 mg/kg, 32 mA, 2.0 Hr), 2/4; in the data set on 6 Hz psychomotor seizure (100 mg/kg, 32 mA, 4.0 Hr), 2/4. For the same compound, the ED50 was found to be 14.2 mg/kg in the data set on 6 Hz psychomotor seizure (1 h, 22 mA, 1 Hr, read-out: ED50 (6 Hz)) and 71.2 mg/kg in the data set with 6 Hz psychomotor seizure (1 h, 32 mA, 1 Hr, read-out: ED50 (6 Hz)). Moreover, the “TOX (Rotorod Test), animals toxic/tested” value in [12] (30 mg/kg, 0.5 Hr) is 0/4; in data set [12] (30 mg/kg, 4.0 Hr) it was 0/2; in [12] (100 mg/kg, 0.5 hr) it was 1/8; in data set [12] (100 mg/kg, 4.0 hr), 0/4; in data set [12] (300 mg/kg, 0.5 Hr), 2/4; in [12] (300 mg/kg, 4.0 Hr) it was 0/2. For the same compound, the “scMet, animals protected/tested” value in data set [13] (0.5 h) is on record as 0/4; in data set [13] (1.0 h), 0/4; in data set [13] (2.0 h) it was 1/4; in data set [13] (4.0 h), 0/4; in data set [13] ([…]), 1/4; in data set [16] (30 mg/kg, 0.5 Hr), 0/1. For the same compound, the “scMet, animals protected/tested” value in data set [16] (30 mg/kg, 4.0 Hr) is 0/1; in [16] (100 mg/kg, 0.5 hr) it was 2/5; in data set [16] (100 mg/kg, 4.0 hr), 0/1; in data set [16] (300 mg/kg, 0.5 Hr), 1/1; in data set [16] (300 mg/kg, 4.0 Hr), 0/1. Besides, the “MES, animals protected/tested” value was 0/1 in the data set on MES-induced seizures [14] (30 mg/kg, 0.5 Hr); 0/1 in the data set on MES-induced seizures [14] (30 mg/kg, 4.0 Hr); 0/3 in the data set on MES-induced seizures [14] (100 mg/kg, 0.5 hr); 0/3 in the data set with MES-induced seizures [14] (100 mg/kg, 4.0 hr); 0/1 with MES-induced seizures [14] (300 mg/kg, 0.5 Hr); 0/1 with MES-induced seizures [14] (300 mg/kg, 4.0 Hr). Moreover, the “Tox, animals toxic/tested” value in data set [15] (0.5 h), in data set [15] (1.0 h), in [15] (2.0 h), in data set [15] (4.0 h) and in data set [15] ([…]) was 0/4 each time. Further, the Ki in data set [3] and in data set [4] was more than 5 µM throughout.

As a reminder, the ED50 is the dose at which the effect has come halfway, by size or by number of responders. In general, TD50 refers to the dose at which the toxic effect under study appears in half of the subjects.
